Data published in ChEMBL document CHEMBL1201862, “PubChem BioAssay data set” (2004).
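Five compound concentrations were applied to cells in 96-well plates for 48 hours; endpoints were derived by simple linear interpolation of the resulting dose-response curve. Abbreviation: GI50, concentration required for 50% inhibition of growth.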 Activity calls are given as the source filed them. Rule as the data show it: active = GI50 up to about 1.1 µM and inactive = higher.

Legend:
Experiment in all cases: DTP human tumour cell line panel, 48 h
EKVX = test system: EKVX
HCT-116 = test system: HCT-116
HCT-15 = test system: HCT-15
HT-29 = test system: HT-29
IGROV-1 = test system: IGROV-1
LOX IMVI = test system: LOX IMVI
MOLT-4 = test system: MOLT-4
NCI-H23 = test system: NCI-H23
NCI-H460 = test system: NCI-H460
OVCAR-4 = test system: OVCAR-4
OVCAR-8 = test system: OVCAR-8
SF-268 = test system: SF-268
SF-295 = test system: SF-295
SK-MEL-28 = test system: SK-MEL-28
SK-MEL-2 = test system: SK-MEL-2
SK-OV-3 = test system: SK-OV-3
SN12C = test system: SN12C
SNB-19 = test system: SNB-19
UACC-257 = test system: UACC-257
UACC-62 = test system: UACC-62

Row | SMILES | GI50 (EKVX) | GI50 (HCT-116) | GI50 (HCT-15) | GI50 (HT-29) | GI50 (IGROV-1) | GI50 (LOX IMVI) | GI50 (MOLT-4) | GI50 (NCI-H23) | GI50 (NCI-H460) | GI50 (OVCAR-4) | GI50 (OVCAR-8) | GI50 (SF-268) | GI50 (SF-295) | GI50 (SK-MEL-28) | GI50 (SK-MEL-2) | GI50 (SK-OV-3) | GI50 (SN12C) | GI50 (SNB-19) | GI50 (UACC-257) | GI50 (UACC-62)
1 | Nc1c(S(=O)(=O)O)cc2cc(S(=O)(=O)O)ccc2c1/N=N/c1ccc(-c2ccc(/N=N/c3c(N)c(S(=O)(=O)O)cc4cc(S(=O)(=O)O)ccc34)c(S(=O)(=O)O)c2)cc1 | > 100 µM (inactive) | > 100 µM (inactive) | > 91.4 µM | > 100 µM (inactive) | 54.7 µM (inactive) | > 100 µM (inactive) | 95.7 µM (inactive) | > 100 µM (inactive) | > 31.6 µM (inactive) | 29.4 µM (inactive) | > 100 µM (inactive) | > 100 µM (inactive) | > 100 µM (inactive) | > 100 µM (inactive) | > 100 µM (inactive) | > 100 µM (inactive) | > 100 µM (inactive) | > 100 µM (inactive) | > 100 µM (inactive) | > 100 µM (inactive)
2 | COc1cc2cc3c4cc(OC)c(OC)cc4cc[n+]3cc2cc1OC | > 100 µM (inactive) | > 100 µM (inactive) | > 100 µM | > 100 µM (inactive) | > 100 µM (inactive) | > 100 µM (inactive) | > 75.5 µM (inactive) | > 76.7 µM (inactive) | > 100 µM (inactive) | > 100 µM (inactive) | > 100 µM (inactive) | 0.435 µM (active) | > 100 µM (inactive) | > 100 µM (inactive) | > 100 µM (inactive) | > 82.2 µM (inactive) | 12.4 µM (inactive) | 15.2 µM (inactive) | > 100 µM (inactive) | > 100 µM (inactive)
3 | CC(C)N1CSC(=S)N(Cc2ccccc2)C1 | > 10 µM (inactive) | 3.01 µM (inactive) | 3.4 µM | 2.43 µM (inactive) | > 10 µM (inactive) | 3.66 µM (inactive) | 2.63 µM (inactive) | 3.1 µM (inactive) | > 10 µM (inactive) | > 10 µM (inactive) | 4.75 µM (inactive) | 4.38 µM (inactive) | > 10 µM (inactive) | 3.78 µM (inactive) |  | > 10 µM (inactive) | 4.49 µM (inactive) | 0.752 µM (active) |  | 4.06 µM (inactive)
4 | CSc1nc(SC)c2cnn(CC3CO3)c2n1 (centres undefined) | 29.3 µM (inactive) | 13.4 µM (inactive) | 25.2 µM | 22 µM (inactive) | 19.4 µM (inactive) | 7.59 µM (inactive) | 2.17 µM (inactive) | 18.6 µM (inactive) | 21 µM (inactive) | 20.7 µM (inactive) | 9.18 µM (inactive) | 9.73 µM (inactive) | 24.6 µM (inactive) | 13.9 µM (inactive) | 16.7 µM (inactive) | 30.8 µM (inactive) | 20.2 µM (inactive) | 31.2 µM (inactive) | 19.2 µM (inactive) | 19.2 µM (inactive)
5 | COc1ccc(NC(=O)C(=O)C(C(=O)c2ccccc2)C2OC(=O)c3ccccc32)c([N+](=O)[O-])c1 (centres undefined) | > 100 µM (inactive) | > 100 µM (inactive) | > 100 µM | > 100 µM (inactive) | > 100 µM (inactive) | > 100 µM (inactive) | > 100 µM (inactive) | > 100 µM (inactive) | > 100 µM (inactive) | > 100 µM (inactive) | > 100 µM (inactive) | > 100 µM (inactive) | > 100 µM (inactive) | > 100 µM (inactive) | > 100 µM (inactive) | > 100 µM (inactive) | > 100 µM (inactive) | > 100 µM (inactive) | > 100 µM (inactive) | > 100 µM (inactive)
6 | O=C(NN1C(=O)C(Cl)C1c1ccc([N+](=O)[O-])cc1)c1ccccc1O (centres undefined) | > 100 µM (inactive) | > 100 µM (inactive) |  | > 100 µM (inactive) | > 100 µM (inactive) |  | > 100 µM (inactive) | > 100 µM (inactive) | > 100 µM (inactive) | > 100 µM (inactive) | > 100 µM (inactive) | > 100 µM (inactive) | > 100 µM (inactive) | > 100 µM (inactive) | > 100 µM (inactive) | > 100 µM (inactive) | > 100 µM (inactive) | 68.1 µM (inactive) | > 100 µM (inactive) | > 100 µM (inactive)
7 | Nc1nc2cc(COc3ccc(C(=O)O)cc3)ccc2nc1-c1ccccc1 | > 10 µM (inactive) |  | > 10 µM | > 10 µM (inactive) | > 10 µM (inactive) | > 10 µM (inactive) | > 10 µM (inactive) | > 10 µM (inactive) | > 10 µM (inactive) | > 10 µM (inactive) |  | > 10 µM (inactive) | > 10 µM (inactive) | > 10 µM (inactive) | > 10 µM (inactive) | > 10 µM (inactive) | > 10 µM (inactive) | > 10 µM (inactive) | > 10 µM (inactive) | > 10 µM (inactive)
8 | c1ccc(C(c2ccccc2)[P+](c2ccccc2)(c2ccccc2)c2ccccc2)cc1 | 4.7 µM (inactive) | 0.326 µM (active) | 4.62 µM | 0.332 µM (active) | 0.394 µM (active) | 0.265 µM (active) | 0.419 µM (active) | 0.45 µM (active) | 0.456 µM (active) | 0.479 µM (active) | 0.542 µM (active) | 0.556 µM (active) | 1.7 µM (inactive) | 0.446 µM (active) | 0.305 µM (active) | 0.596 µM (active) | 0.592 µM (active) | 0.526 µM (active) | 0.348 µM (active) | 0.332 µM (active)
9 | CCOC(=O)C1=C(C)N(NC(N)=O)C2(O)CCCC(=O)C12C (centres undefined) |  | > 10 µM (inactive) | > 100 µM | > 100 µM (inactive) | > 100 µM (inactive) | > 100 µM (inactive) |  | > 100 µM (inactive) |  | > 100 µM (inactive) | > 100 µM (inactive) |  | > 100 µM (inactive) | > 100 µM (inactive) | > 100 µM (inactive) | > 100 µM (inactive) | > 100 µM (inactive) | > 100 µM (inactive) | > 100 µM (inactive) | > 100 µM (inactive)
10 | CCOC(=O)C1=C(C)N(c2ccc(OC)cc2)C2(O)C=CC(O)=C3C(=O)c4ccccc4C(=O)C312 (centres undefined) | 7.43 µM (inactive) | 11.3 µM (inactive) | 6.71 µM | 17.9 µM (inactive) | 3.56 µM (inactive) | 7.16 µM (inactive) | 3.89 µM (inactive) | 16.1 µM (inactive) | 11.5 µM (inactive) | 2.99 µM (inactive) | 14.9 µM (inactive) | 2.13 µM (inactive) | 8.77 µM (inactive) |  | 16.3 µM (inactive) | 13.4 µM (inactive) | 14.8 µM (inactive) | 13 µM (inactive) | 15.7 µM (inactive) | 12.5 µM (inactive)
11 | CC1(c2sccc2Cl)CC(c2sccc2Cl)=C(C#N)C(=C(C#N)C#N)N1 (centres undefined) | 18.7 µM (inactive) | 17.2 µM (inactive) | 17.9 µM | 24 µM (inactive) | 23 µM (inactive) | 19.2 µM (inactive) | 38.7 µM (inactive) | 17.9 µM (inactive) | 19 µM (inactive) | 25.1 µM (inactive) | 20.8 µM (inactive) | 20.2 µM (inactive) | 17.9 µM (inactive) | 18.2 µM (inactive) | 20.3 µM (inactive) | 17.5 µM (inactive) | 20.2 µM (inactive) | 18.3 µM (inactive) | 22.4 µM (inactive) | 18.3 µM (inactive)
12 | COc1cccc2c1C(=O)c1c(O)c3c(c(O)c1C2=O)CC(O)(C(=O)CO)CC3OC1CC(N)C(I)C(C)O1 (centres undefined) | 14.4 µM (inactive) | 0.573 µM (active) | 1.83 µM | 3.15 µM (inactive) | 1.88 µM (inactive) | 1.45 µM (inactive) | 0.335 µM (active) | 2.28 µM (inactive) | 0.313 µM (active) | 4.01 µM (inactive) | 3.58 µM (inactive) | 15.9 µM (inactive) | 2.1 µM (inactive) | 15.2 µM (inactive) | 9.79 µM (inactive) | 3.98 µM (inactive) | 2.38 µM (inactive) | 3.12 µM (inactive) | > 29.3 µM (inactive) | 1.58 µM (inactive)
13 | CC(=O)NNc1nc(C)c(C(=O)NNC(=O)C(=O)Nc2ccc([N+](=O)[O-])cc2[N+](=O)[O-])s1 | 35.6 µM (inactive) | > 100 µM (inactive) | > 100 µM | 55.3 µM (inactive) | > 100 µM (inactive) | > 100 µM (inactive) | 37.1 µM (inactive) | > 100 µM (inactive) | > 100 µM (inactive) | > 100 µM (inactive) | > 100 µM (inactive) | > 100 µM (inactive) | > 100 µM (inactive) | > 100 µM (inactive) | > 100 µM (inactive) | > 100 µM (inactive) | > 100 µM (inactive) | > 100 µM (inactive) | > 100 µM (inactive) | > 100 µM (inactive)
